US20120265121A1, “PHTHALOCYANINE-BASED ANTIFUNGAL AGENTS” (CASE WESTERN RESERVE UNIVERSITY, priority 2011, published 2012)

Experiments:
[1] = format: in vitro ADME, human
Source text: Because drug penetration into and through the nail plate is always a challenge in the treatment of onychomycosis, the nail absorption of topically applied Pc 4 was also investigated. […] Considering that these samples were healthy nails, it appears that diseased/dystrophic nails whose barrier functions have been compromised may even have better Pc 4 absorption. Nonetheless, in the clinical protocol, the inventors specified that Pc 4 will be applied not only on the nail plate but also on the exposed subungual tissue and periungual area.

[2] = system: C. albicans (strain SC-5134); test: XTT reduction metabolic activity assay; format: cell-based, Candida albicans
Method: Metabolic Activity Assay: XTT reduction assays were performed according to the procedure of Chandra et al. Chandra et al., Nature Protocol. 3(12): 1909-2 (2008). Briefly, in the dark, aliquots of 2 ml of cells were treated with 200 nM of Pc 4 in 10% FBS standard growth medium in a 37° C. shaker. The next day, the cells were photoirradiated with red light using a light-emitting diode array (EFOS, Mississauga, Ontario, Canada) at a fluence of 200, 500, 1000 and 2000 mil/cm^2 (1 milliwat/cm^2, ymax ˜670-675 nm) at room temperature. For negative controls, a 2 ml aliquot was not photoirradiated and a 2 ml aliquot simply was loaded overnight with an appropriate amount of N′,N′-dimethylformamide and then photoirridated with the highest fluence the next day. For positive control, either cells were treated with 30% ethanol or 1 uM of Thapsigargin. […] One ml of each treatment condition was used to incubate with XTT (final concentration 1 mg/ml) and menadione (final concentration 1 mM) for 5 hours in the dark and then transferred to 1 ml plastic cuvette for absorbance measurement. Colorimetric changes, which reflect the viability of the cells given different treatment conditions, were measured at 492-nm using a spectrophotometer (Spectronic Genesys™ 5, Analytical Instrument, Golden Valley, Minn., USA). […]

[3] = system: T. rubrum; test: Clonogenic (CFU) assay after Pc 4-PDT; format: cell-based, Trichophyton rubrum; settings: 0-2 μM Pc 4, 2.0 J/cm^2
Method: Cells were treated with 0-2 μM of Pc 4 for at least 2 hours before being photoirradiated with 2.0 J/cm^2.
Mycologic cure remains the gold-standard in the evaluation of antifungal therapies and leads to lower recurrence rates. […] Immediately after photoirradiation, treated and control samples were diluted and spread 100 μL onto Sabouraud potato agar plates (Becton Dickinson, New Jersey, USA). All plates were incubated at 28° C. and colonies were counted within 5 days.

[4] = topical application; cited from earlier work
[5] = system: T. rubrum; test: Turbidity growth assay of microconidia after Pc 4-PDT; format: cell-based, Trichophyton rubrum; settings: Pc 4 up to 2 μM, 2.0 J/cm^2
Method: (§1) Terbinafine sensitive (23013) and resistant (MRL666) strains of T. rubrum were grown onto Sabouraud potato agar plate for at least 24 hours at 28° C. Microconidia were separated from most of the hyphae form before treating with Pc 4-PDT.

[6] = system: T. rubrum; test: XTT reduction assay after Pc 4-PDT; format: cell-based, Trichophyton rubrum
Method: as §1

[7] = terbinafine resistant strain MRL666
[8] = terbinafine sensitive strain 23013

What does the source list for `CN(C)CCC[Si](C)(C)O[Si]1(O)n2c3c4ccccc4c2N=C2N=C(N=c4c5ccccc5c(n41)=NC1=NC(=N3)c3ccccc31)c1ccccc12` (stereo not shown) [Pc 4, HOSiPcOSi(CH3)2(CH2)3N(CH3)2]?
Pc 4 fluorescence within the nail plate [1]: significant amount of Pc 4 fluorescence can be detected within the nail plate; metabolic activity (XTT, percent viability), FIG. 1 ([2]; 200 nM Pc 4 + 0.2-2.0 J/cm^2): impairs fungal metabolic activity; reduction of metabolic activity (XTT) ([2]; highest Pc 4-PDT dose (1.0 μM, 2.0 J/cm^2), within an hour following photoirradiation): ~50%; survival (CFU) ([3]; terbinafine-resistant strain MRL666): dose-dependent decrease in the survival; survival (CFU) ([3]; terbinafine-sensitive strain 23013): dose-dependent decrease in the survival; penetration through stratum corneum and epidermis [4]: penetrate through the stratum corneum and epidermis; growth of microconidia [5, 7]: inhibited by Pc 4-PDT in a dose response fashion; growth of microconidia [5, 8]: inhibited by Pc 4-PDT in a dose response fashion; metabolic activity (XTT) [6, 7]: attenuates following Pc 4-PDT; metabolic activity (XTT) [6, 8]: attenuates following Pc 4-PDT
